Results published in paper PMC6540907, “The nuclear export inhibitor aminoratjadone is a potent effector in extracellular-targeted drug conjugates” (Chemical Science, 2019).
Read-outs that look alike come from different tables or passages of the source. Starred links: 1 amine or outer side, 2 acyl side, 3 side chain; linkers in the order of their positions; H or OH if unused. Non-standard residues stand in square brackets, D forms with d. Residues, ends and D or L forms follow the SMILES beside them. Groups on a side chain read outwards from the residue. *: point of attachment. X2 = C/C=C/[C@@H]1O[C@H]([C@@H](/C=C/C=C(\C)C[C@@H](C)/C=C(C)\C=C\[C@H]2CC=CC(=O)O2)N*)C[C@@H](O)[C@@H]1C; X1 = O=C([C@@H](CCCn1nnc2c1CCC1C(CC2)C1COC(=O)[*:3])N[*:1])[*:2]; PABC = O=C(OCc1ccc(N[*:1])cc1)[*:2]; Cit = NC(=O)NCCC[C@H](N)C(=O)O; pGlu = O=C1CC[C@@H](C(=O)O)N1; azaGly = NNC(=O)O

Columns and labels:
Type in all cases: cell-based, human
[1] = test system: A-549; test: cells
Protocol: (§1) Biological evaluation of the compounds […]
(§2) serial dilutions of the test compound were given to 120 µL of suspended cells (50.000/mL) in wells of 96-well plates. After 5 days of incubation growth inhibition (IC50) was determined using an MTT assay.9
(§3) Table S1:Medium conditions for different cell types.
(§4) Cell type Medium Additives
(§5) L-929 (DSMZ ACC 2) DME medium (high glucose) (Gibco) 10% fetal calf serum (Gibco) SKOV-3 DSMZ ATCC HTB Mc Coys-Medium (Gibco) 10% fetal calf serum (Gibco) […]
(§6) A549 (DSMZ ACC 107) DME medium (high glucose) (Gibco) 10% fetal calf serum (Gibco)

[2] = test system: MCF-7; test: cells
Protocol: as §1, §2, §3, §4, §5, §6

[3] = test system: KB-3.1; test: cells
Protocol: as §1, §2, §3, §4, §5, §6

[4] = test system: SK-OV-3; test: cells
Protocol: as §1, §2, §3, §4, §5, §6

[5] = test system: KB-3.1 cancer cells; test: Cell proliferation assay under folate free conditions (MTT); settings: KB-3.1, folate receptor-positive, read-out: Antiproliferative activity IC50 of folate-ratjadone conjugates
Protocol: Cell proliferation assay under folate free conditions
KB 3.1 (DSMZ ACC 158) cells were cultivated at 37 °C and 10 % CO2 in RMPI-medium without folic acid (Gibco) with 10% fetal calf serum (Gibco). 120 µL of suspended cells (100.000/mL) were seeded in wells of 96-well plates and after 24 h at 37 °C and 10 % CO2 the medium was removed, the cells were washed with PBS and RPMI-medium without folic acid (Gibco) + 10% dialyzed fetal calf serum (Sigma) were added to the cells, before after additional 24 h at 37°C and 10 % CO2 60 µL of serial dilutions of the test compound were given to cells. After 1, 2 and 5 days of incubation growth inhibition (IC50) was determined using an […]

[6] = A-549 human lung carcinoma, read-out: Antiproliferative activity IC50
[7] = Homo sapiens, A549, read-out: Antiproliferative activity IC50, A-549 human lung carcinoma
[8] = Homo sapiens, MCF7, read-out: Antiproliferative activity IC50, MCF-7 human breast carcinoma
[9] = Homo sapiens, KB 3-1, read-out: Antiproliferative activity IC50, KB-3.1 human cervix carcinoma
[10] = Homo sapiens, SK-OV-3, read-out: Antiproliferative activity IC50

C/C=C/[C@@H]1O[C@H]([C@@H](/C=C/C=C(\C)C[C@@H](C)/C=C(C)\C=C\[C@H]2CC=CC(=O)O2)NC(=O)OCc2ccc(NC(=O)[C@H](CCCNC(N)=O)NC(=O)[C@@H](NC(=O)OCC3C4CCc5nnn(CCC[C@@H](NC(=O)[C@H](Cc6ccc(O)cc6)NC(=O)[C@H](CO)NC(=O)[C@H](Cc6c[nH]c7ccccc67)NC(=O)[C@H](Cc6c[nH]cn6)NC(=O)[C@@H]6CCC(=O)N6)C(=O)N[C@@H](CC(C)C)C(=O)N[C@@H](CCCNC(=N)N)C(=O)N6CCC[C@H]6C(=O)NCC(N)=O)c5CCC43)C(C)C)cc2)C[C@@H](O)[C@@H]1C (some centres unmarked)
IC50 [1, 6]: 0.023 µM

C/C=C/[C@@H]1O[C@H]([C@@H](/C=C/C=C(\C)C[C@@H](C)/C=C(C)\C=C\[C@H]2CC=CC(=O)O2)NC(=O)OCc2ccc(NC(=O)[C@H](CCCNC(N)=O)NC(=O)[C@@H](NC(=O)OCCc3cn(CCC[C@H](NC(=O)[C@H](Cc4ccc(O)cc4)NC(=O)[C@H](CO)NC(=O)[C@H](Cc4c[nH]c5ccccc45)NC(=O)[C@H](Cc4c[nH]cn4)NC(=O)[C@@H]4CCC(=O)N4)C(=O)N[C@@H](CC(C)C)C(=O)N[C@@H](CCCNC(=N)N)C(=O)N4CCC[C@H]4C(=O)NCC(N)=O)nn3)C(C)C)cc2)C[C@@H](O)[C@@H]1C
IC50 [1, 6]: 1.2 µM

C/C=C/[C@@H]1O[C@H]([C@@H](/C=C/C=C(\C)C[C@@H](C)/C=C(C)\C=C\[C@H]2CC=CC(=O)O2)NC(=O)OCc2ccc(NC(=O)[C@H](CCCNC(N)=O)NC(=O)[C@@H](NC(=O)OCC3C4CCc5nnn(CCC[C@@H](NC(=O)[C@H](Cc6ccc(O)cc6)NC(=O)[C@H](CO)NC(=O)[C@H](Cc6c[nH]c7ccccc67)NC(=O)[C@H](Cc6c[nH]cn6)NC(=O)[C@@H]6CCC(=O)N6)C(=O)N[C@@H](CC(C)C)C(=O)N[C@@H](CCCNC(=N)N)C(=O)N6CCC[C@H]6C(=O)NNC(N)=O)c5CCC43)C(C)C)cc2)C[C@@H](O)[C@@H]1C (stereo partly drawn) ([pGlu]HWSY[X1]([Val-Cit-PABC-X2])LRP[azaGly]-NH2)
IC50 [1, 6]: 0.0128 µM

C#CCCOC(=O)N[C@@H](C(=O)NC(CCCNC(N)=O)C(=O)Nc1ccc(COC(=O)N[C@H](/C=C/C=C(\C)C[C@@H](C)/C=C(C)\C=C\[C@H]2CC=CC(=O)O2)[C@@H]2C[C@@H](O)[C@H](C)[C@H](/C=C/C)O2)cc1)C(C)C (some centres unmarked) [Compound 26]
IC50 [1, 6]: 0.0251 µM
IC50 ([1]; Homo sapiens, A549, A-549 human lung carcinoma, read-out: Antiproliferative activity IC50): 0.0251 µM
IC50 ([2]; Homo sapiens, MCF7, MCF-7 human breast carcinoma, read-out: Antiproliferative activity IC50): 0.0125 µM
IC50 ([2]; MCF-7 human breast carcinoma, read-out: Antiproliferative activity IC50): 0.0125 µM
IC50 ([3]; KB 3-1, KB-3.1 human cervix carcinoma, read-out: Antiproliferative activity IC50): 0.0092 µM
IC50 ([4]; Homo sapiens, SK-OV-3, SK-OV-3 human ovarian carcinoma, read-out: Antiproliferative activity IC50): 0.0136 µM
IC50 ([4]; SK-OV-3 human ovarian carcinoma, read-out: Antiproliferative activity IC50): 0.0136 µM

C#CCCC(=O)NCCSSCCC(=O)N[C@H](/C=C/C=C(\C)C[C@@H](C)/C=C(C)\C=C\[C@H]1CC=CC(=O)O1)[C@@H]1C[C@@H](O)[C@H](C)[C@H](/C=C/C)O1 [Compound 29, HCC(CH2)2(CO)-NH-(CH2)2SS(CH2)2(CO)-16R-Aminoratjadone]
IC50 [1, 7]: 0.00086 µM
IC50 [2, 8]: 0.00017 µM
IC50 [3, 9]: 0.00186 µM
IC50 [4, 10]: 0.00109 µM

C#CCCOC(=O)NC1C[C@@H]([C@H](O)/C=C/C=C(\C)C[C@@H](C)/C=C(C)\C=C\[C@H]2CC=CC(=O)O2)O[C@@H](/C=C/C)[C@H]1C (some centres unmarked) [Compound 34]
IC50 [1, 7]: 0.00522 µM
IC50 [2, 8]: 0.0031 µM
IC50 [3, 9]: 0.00723 µM
IC50 [4, 10]: 0.00422 µM

CC(C)C[C@H](NC(=O)[C@@H](CCCN=[N+]=[N-])NC(=O)[C@H](Cc1ccc(O)cc1)NC(=O)[C@H](CO)NC(=O)[C@H](Cc1c[nH]c2ccccc12)NC(=O)[C@H](Cc1c[nH]cn1)NC(=O)[C@@H]1CCC(=O)N1)C(=O)N[C@@H](CCCNC(=N)N)C(=O)N1CCC[C@H]1C(=O)NCC(N)=O [D-Orn-N3-LHRH]
IC50 [1]: 0.318 µM
IC50 [2]: 0.0474 µM
IC50 [3]: 1.11 µM
IC50 [4]: 0.19 µM

C/C=C/[C@@H]1O[C@H]([C@@H](/C=C/C=C(\C)C[C@@H](C)/C=C(C)\C=C\[C@H]2CC=CC(=O)O2)NC(=O)OCc2ccc(NC(=O)[C@H](CCCNC(N)=O)NC(=O)[C@@H](NC(=O)OCC3C4CCc5nnn(-c6ccc(C(=O)NCCCC[C@H](NC(=O)CC[C@H](NC(=O)CC[C@H](NC(=O)c7ccc(NCc8cnc9nc(N)[nH]c(=O)c9n8)cc7)C(=O)O)C(=O)O)C(=O)OC)cc6)c5CCC43)C(C)C)cc2)C[C@@H](O)[C@@H]1C (stereo partly drawn) [FA-1-Val-Cit-pABA-16R-aminoratjadone]
IC50 ([5]; listed as FA-1-Val-Cit-pABA-16R-Aminoratjadone): 0.169 µM
IC50 [5]: 0.169 µM

C/C=C/[C@@H]1O[C@H]([C@@H](/C=C/C=C(\C)C[C@@H](C)/C=C(C)\C=C\[C@H]2CC=CC(=O)O2)NC(=O)OCCc2cn(-c3ccc(C(=O)NCCCC[C@H](NC(=O)CC[C@H](NC(=O)CC[C@H](NC(=O)c4ccc(NCc5cnc6nc(N)nc(O)c6n5)cc4)C(=O)O)C(=O)O)C(=O)O)cc3)nn2)C[C@@H](O)[C@@H]1C [FA-6-L-16R-aminoratjadone]
IC50 ([5]; listed as FA-6-L-16R-Aminoratjadone): 0.15 µM
IC50 [5]: 0.15 µM

C/C=C/[C@@H]1O[C@H]([C@@H](/C=C/C=C(\C)C[C@@H](C)/C=C(C)\C=C\[C@H]2CC=CC(=O)O2)NC(=O)OCc2ccc(NC(=O)[C@H](CCCNC(N)=O)NC(=O)[C@@H](NC(=O)OC[C@@H]3[C@@H]4CCc5nnn(-c6ccc(C(=O)NCCCC[C@H](NC(=O)CC[C@H](NC(=O)CC[C@H](NC(=O)c7ccc(NCc8cnc9nc(N)nc(O)c9n8)cc7)C(=O)O)C(=O)O)C(=O)O)cc6)c5CC[C@@H]43)C(C)C)cc2)C[C@@H](O)[C@@H]1C [FA-6-Val-Cit-pABA-16R-aminoratjadone]
IC50 ([5]; listed as FA-6-Val-Cit-pABA-16R-Aminoratjadone): 0.223 µM
IC50 [5]: 0.223 µM

C/C=C/[C@@H]1O[C@H]([C@@H](/C=C/C=C(\C)C[C@@H](C)/C=C(C)\C=C\[C@H]2CC=CC(=O)O2)NC(=O)OCCc2cn(CCC[C@H](NC(=O)CC[C@H](NC(=O)CC[C@H](NC(=O)c3ccc(NCc4cnc5nc(N)[nH]c(=O)c5n4)cc3)C(=O)O)C(=O)O)C(=O)O)nn2)C[C@@H](O)[C@@H]1C [FA-7-L-16R-aminoratjadone]
IC50 ([5]; listed as FA-7-L-16R-Aminoratjadone): 0.19 µM
IC50 [5]: 0.19 µM

C/C=C/[C@@H]1O[C@H]([C@@H](/C=C/C=C(\C)C[C@@H](C)/C=C(C)\C=C\[C@H]2CC=CC(=O)O2)NC(=O)OCc2ccc(NC(=O)[C@H](CCCNC(N)=O)NC(=O)[C@@H](NC(=O)OC[C@@H]3[C@@H]4CCc5nnn(CCC[C@H](NC(=O)CC[C@H](NC(=O)CC[C@H](NC(=O)c6ccc(NCc7cnc8nc(N)nc(O)c8n7)cc6)C(=O)O)C(=O)O)C(=O)O)c5CC[C@@H]43)C(C)C)cc2)C[C@@H](O)[C@@H]1C [FA-7-Val-Cit-pABA-16R-aminoratjadone]
IC50 [5]: 0.0343 µM

C/C=C/[C@@H]1O[C@H]([C@@H](/C=C/C=C(\C)C[C@@H](C)/C=C(C)\C=C\[C@H]2CC=CC(=O)O2)NC(=O)OCCc2cn(-c3ccc(C(=O)NCCCC[C@H](NC(=O)CC[C@H](NC(=O)c4ccc(NCc5cnc6nc(N)[nH]c(=O)c6n5)cc4)C(=O)O)C(=O)N[C@@H](CCCCN)C(=O)O)cc3)nn2)C[C@@H](O)[C@@H]1C [FA-8-L-16R-aminoratjadone]
IC50 ([5]; listed as FA-8-L-16R-Aminoratjadone): 0.129 µM
IC50 [5]: 0.129 µM

C/C=C/[C@@H]1O[C@H]([C@@H](/C=C/C=C(\C)C[C@@H](C)/C=C(C)\C=C\[C@H]2CC=CC(=O)O2)NC(=O)OCc2ccc(NC(=O)[C@H](CCCNC(N)=O)NC(=O)[C@@H](NC(=O)OC[C@@H]3[C@@H]4CCc5nnn(-c6ccc(C(=O)NCCCC[C@H](NC(=O)CC[C@H](NC(=O)c7ccc(NCc8cnc9nc(N)nc(O)c9n8)cc7)C(=O)O)C(=O)N[C@H](CCCCN)C(=O)O)cc6)c5CC[C@@H]43)C(C)C)cc2)C[C@@H](O)[C@@H]1C [FA-8-Val-Cit-pABA-16R-aminoratjadone]
IC50 [5]: 0.0399 µM

C/C=C/[C@@H]1O[C@H]([C@@H](/C=C/C=C(\C)C[C@@H](C)/C=C(C)\C=C\[C@H]2CC=CC(=O)O2)NC(=O)OCCc2cn(CCC[C@H](NC(=O)[C@H](Cc3ccc(O)cc3)NC(=O)[C@H](CO)NC(=O)[C@H](Cc3c[nH]c4ccccc34)NC(=O)[C@H](Cc3c[nH]cn3)NC(=O)[C@@H]3CCC(=O)N3)C(=O)N[C@@H](CC(C)C)C(=O)N[C@@H](CCCNC(=N)N)C(=O)N3CCC[C@H]3C(=O)NCC(N)=O)nn2)C[C@@H](O)[C@@H]1C [L-Orn-LHRH-16R-aminoratjadone]
IC50 [1, 6]: 1.6 µM
